How the values were obtained:
[1] = system: Glo-Response ARE-luc2P HEK293 cell line; test: ARE luciferase reporter cell-based assay; settings: Homo sapiens, HEK293, 24 h, average of results obtained;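 note: luciferase signal tracks Nrf2 activation of the ARE once compounds disrupt KEAP1-Nrf2 binding, read with One-Glo reagent, DMSO serving as low control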
[2] = target: Kelch domain of human KEAP1 (321-624 aa) (Homo sapiens (Human), UniProt Q14145); test: KEAP1 KELCH ThermoFluor binding assay; settings: KEAP Kelch […], 1,8-ANS, pH 7.0, average of results obtained, read-out: Tf Kd;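 note: Ligand-induced melting temperature shift of E. coli-expressed KEAP1 Kelch protein, Kd estimated from concentration-response curves of ΔTm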
Sequence of Kelch domain of human KEAP1 (321-624 aa) (Q14145 321-624): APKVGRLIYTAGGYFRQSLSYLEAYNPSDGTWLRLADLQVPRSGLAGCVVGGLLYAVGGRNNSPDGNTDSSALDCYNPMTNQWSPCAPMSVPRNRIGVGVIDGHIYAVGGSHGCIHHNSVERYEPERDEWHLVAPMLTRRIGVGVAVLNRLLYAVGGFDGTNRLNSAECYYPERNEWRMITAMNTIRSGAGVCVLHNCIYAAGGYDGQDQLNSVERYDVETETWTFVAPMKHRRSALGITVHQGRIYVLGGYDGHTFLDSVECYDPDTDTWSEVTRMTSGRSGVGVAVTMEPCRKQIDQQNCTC

SMILES	EC50 [1]	Kd [2]
Cc1ccc([C@@H](CC(=O)O)c2ccn3c(C(F)F)nnc3c2C)cc1CN1CC2(CCOCC2)Oc2ncc(F)cc2S1(=O)=O (single isomer, unassigned) [Example 534, (*R)-3-(3-(Difluoromethyl)-8-methyl-[1,2,4]triazolo[4,3-a]pyridin-7-yl)-3-(3-((8′-fluoro-1′,1′-dioxido-2,3,5,6-tetrahydrospiro[pyran-4,4′-pyrido[2,3-b][1,4,5]oxathiazepin]-2′(3′H)-yl)methyl)-4-methylphenyl)propanoic Acid]	99.2 nM	< 1 nM
Cc1cnc2c(c1)S(=O)(=O)N(Cc1nc([C@H](CC(=O)O)c3ccn4c(C(F)(F)F)nnc4c3C)ccc1C)C[C@H]1CCCCN21 (single isomer, unassigned) [Example 492, (*R)-3-(8-Methyl-3-(trifluoromethyl)-[1,2,4]triazolo[4,3-a]pyridin-7-yl)-3-(5-methyl-6-(((*R)-3-methyl-5,5-dioxido-7,7a,8,9,10,11-hexahydro-6H-dipyrido[2,1-d:2′,3′-f][1,2,5]thiadiazepin-6-yl)methyl)pyridin-2-yl)propanoic Acid]	12.9 nM	< 1 nM
Cc1ccc(C(CC(=O)O)c2ccn3c(C(F)F)nnc3c2C)cc1CN1CC2CCCCN2c2ncc(C#N)cc2S1(=O)=O (stereo not drawn) [Example 28, 3-(3-((3-Cyano-5,5-dioxido-7,7a, 8,9,10,11-hexahydro-6H-dipyrido[2,1-d:2′,3′-f][1,2,5]thiadiazepin-6-yl)methyl)-4-methylphenyl)-3-(3-(difluoromethyl)-8-methyl-[1,2,4]triazolo[4,3-a]pyridin-7-yl)propanoic Acid]	23.5 nM	< 1 nM
Cc1ccc([C@@H](c2ccn3c(C(F)F)nnc3c2C)C(C)(C)C(=O)O)cc1CN1CC2(CCOCC2)Oc2nc(OCCN3CCOCC3)ccc2S1(=O)=O (single isomer, unassigned) [Example 579, (*S)-3-(3-(Difluoromethyl)-8-methyl-[1,2,4]triazolo[4,3-a]pyridin-7-yl)-2,2-dimethyl-3-(4-methyl-3-((7′-(2-morpholinoethoxy)-1′,1′-dioxido-2,3,5,6-tetrahydrospiro[pyran-4,4′-pyrido[2,3-b][1,4,5]oxathiazepin]-2′(3′H)-yl)methyl)phenyl)propanoic Acid]	27.8 nM	< 1 nM
Cc1ccc([C@H](CC(=O)O)c2ccn3c(C(F)(F)F)nnc3c2C)cc1CN1CC(C)(C)Oc2ncccc2S1(=O)=O (single isomer, unassigned) [Example 269, (*S)-3-(3-((4,4-Dimethyl-1,1-dioxido-3,4-dihydro-2H-pyrido[2,3-b][1,4,5]oxathiazepin-2-yl)methyl)-4-methylphenyl)-3-(8-methyl-3-(trifluoromethyl)-[1,2,4]triazolo[4,3-a]pyridin-7-yl)propanoic Acid]	365 nM	< 1 nM
Cc1ccc([C@@H](c2ccn3c(C(F)(F)F)nnc3c2C)C(C)(C)C(=O)O)cc1CN1CC2(CC2)Oc2nc(OCCN3CCOCC3)c(C)cc2S1(=O)=O (single isomer, unassigned) [Example 597, (*S)-2,2-dimethyl-3-(4-methyl-3-((8′-methyl-7′-(2-morpholinoethoxy)-1′,1′-dioxidospiro[cyclopropane-1,4′-pyrido[2,3-b][1,4,5]oxathiazepin]-2′,(3′H)-yl)methyl)phenyl)-3-(8-methyl-3-(trifluoromethyl)-[1,2,4]triazolo[4,3-a]pyridine-7-yl)propanoic Acid]	2.79 nM	< 1 nM
Cc1ccc([C@@H](CC(=O)O)c2ccn3c(C(F)F)nnc3c2C)cc1CN1CC2(CC2)Oc2ncc(Cl)cc2S1(=O)=O (single isomer, unassigned) [Example 531, (*R)-3-(3-((8′-Chloro-1′,1′-dioxidospiro[cyclopropane-1,4′-pyrido[2,3-b][1,4,5]oxathiazepin]-2′(3′H)-yl)methyl)-4-methylphenyl)-3-(3-(difluoromethyl)-8-methyl-[1,2,4]triazolo[4,3-a]pyridin-7-yl)propanoic Acid]	113 nM	< 1 nM
Cc1ccc([C@H](CC(=O)O)c2ccn3c(C(F)(F)F)nnc3c2C)cc1CN1CC2(CC2)Oc2nc(NCCCO)ccc2S1(=O)=O (single isomer, unassigned) [Example 102]	696 nM	< 1 nM
Cc1ccc([C@@H](c2ccn3c(C(F)(F)F)nnc3c2C)C(C)(C)C(=O)O)cc1CN1CC2(CCOCC2)Oc2nc(CCC(N)=O)ccc2S1(=O)=O (single isomer, unassigned) [Example 599, (*S)-3-(3-((7′-(3-amino-3-oxopropyl)-1′,1′-dioxido-2,3,5,6-tetrahydrospiro[pyran-4,4′-pyrido[2,3-b][1,4,5]oxathiazepin]-2′(3′H)-yl)methyl)-4-methylphenyl)-2,2-dimethyl-3-(8-methyl-3-(trifluoromethyl)-[1,2,4]triazolo[4,3-a]pyridine-7-yl)propanoic Acid]	246 nM	< 1 nM
Cc1ccc([C@H](CC(=O)O)c2ccn3c(C(F)(F)F)nnc3c2C)cc1CN1C[C@@H]2CCCCN2c2ncc(C#N)cc2S1(=O)=O (single isomer, unassigned) [Example 10, (*S)-3-(3-(((*S)-3-Cyano-5,5-dioxido-7,7a,8,9,10,11-hexahydro-6H-dipyrido[2,1-d:2′,3′-f][1,2,5]thiadiazepin-6-yl)methyl)-4-methylphenyl)-3-(8-methyl-3-(trifluoromethyl)-[1,2,4]triazolo[4,3-a]pyridin-7-yl)propanoic Acid]	5.2 nM	< 1 nM
CCn1nnc2c(C)c(C(c3cnc(C)c(CN4CC5(CCOCC5)Oc5ncccc5S4(=O)=O)c3)C(C)(C)C(=O)O)ccc21 (racemic) [Example 58, (R/S)-3-(5-((1′,1′-Dioxido-2,3,5,6-tetrahydrospiro[pyran-4,4′-pyrido[2,3-b][1,4,5]oxathiazepin]-2′(3′H)-yl)methyl)-6-methylpyridin-3-yl)-3-(1-ethyl-4-methyl-1H-benzo[d][1,2,3]triazol-5-yl)-2,2-dimethylpropanoic Acid]	226 nM	2.4 nM
Cc1ccc([C@H](CC(=O)O)c2ccn3c(C(F)(F)F)nnc3c2C)cc1CN1CC2(CC2)Oc2nc(NCCN3CCOCC3)ccc2S1(=O)=O (single isomer, unassigned) [Example 111, (*S)-3-(4-Methyl-((7′-((2-morpholinoethyl)amino)-1′,1′-dioxidospiro[cyclopropane-1,4′-pyrido[2,3-b][1,4,5]oxathiazepin]-2′(3′H)-yl)methyl)-4-methylphenyl)-3-(8-methyl-3-(trifluoromethyl)-[1,2,4 [triazolo[4,3-a]pyridine-7-yl)propanoic Acid]	588 nM	< 1 nM
Cc1ccc([C@@H](c2ccn3c(C(F)(F)F)nnc3c2C)C(C)(C)C(=O)O)cc1CN1CC2(CC2)Oc2ncccc2S1(=O)=O (single isomer, unassigned) [Example 317, (*S)-3-(3-((1′,1′-Dioxidospiro[cyclopropane-1,4′-pyrido[2,3-b][1,4,5]oxathiazepin]-2′(3′H)-yl)methyl)-4-methylphenyl)-2,2-dimethyl-3-(8-methyl-3-(trifluoromethyl)-[1,2,4]triazolo[4,3-a]pyridin-7-yl)propanoic Acid]	1.9 nM	< 1 nM
Cc1ccc([C@H](CC(=O)O)c2ccn3c(C4CC4)nnc3c2C)cc1CN1CC2(CC2)Oc2ncc(F)cc2S1(=O)=O (single isomer, unassigned) [Example 230, (*S)-3-(3-Cyclopropyl-8-methyl-[1,2,4]triazolo[4,3-a]pyridin-7-yl)-3-(3-((8′-fluoro-1′,1′-dioxidospiro[cyclopropane-1,4′-pyrido[2,3-b][1,4,5]oxathiazepin]-2′(3′H)-yl)methyl)-4-methylphenyl)propanoic Acid]	480 nM	< 1 nM
Cc1ccc(C(CC(=O)O)c2ccn3c(C)nnc3c2)cc1CN1CC(C)(C)Oc2ccccc2S1(=O)=O (racemic) [Example 161, (R/S)-3-(3-((4,4-Dimethyl-1,1-dioxido-3,4-dihydro-2H-benzo[b][1,4,5]oxathiazepin-2-yl)methyl)-4-methylphenyl)-3-(3-methyl-[1,2,4]triazolo[4,3-a]pyridin-7-yl)propanoic Acid]	15900 nM	2.8 nM
Cc1cnc2c(c1)S(=O)(=O)N(Cc1cc([C@H](c3ccn4c(C(F)(F)F)nnc4c3)C(C)(C)C(=O)O)ccc1C)CC1(CC1)O2 (single isomer, unassigned) [Example 324, (*R)-2,2-Dimethyl-3-(4-methyl-3-((8′-methyl-1′,1′-dioxidospiro[cyclopropane-1,4′-pyrido[2,3-b][1,4,5]oxathiazepin]-2′(3′H)-yl)methyl)phenyl)-3-(3-(trifluoromethyl)-[1,2,4]triazolo[4,3-a]pyridin-7-yl)propanoic Acid]	16.7 nM	< 1 nM
Cc1ccc([C@@H](CC(=O)O)c2ccn3c(C(F)(F)F)nnc3c2C)nc1CN1C[C@@H]2CCCCN2c2ncccc2S1(=O)=O (single isomer, unassigned) [Example 479, (*S)-3-(6-(((*S)-5,5-Dioxido-7,7a,8,9,10,11-hexahydro-6H-dipyrido[2,1-d:2′,3′-f][1,2,5]thiadiazepin-6-yl)methyl)-5-methylpyridin-2-yl)-3-(8-methyl-3-(trifluoromethyl)-[1,2,4]triazolo[4,3-a]pyridin-7-yl)propanoic Acid]	48.8 nM	< 1 nM
Cc1ccc2c(n1)OC1(CC1)CN(Cc1cc([C@H](CC(=O)O)c3ccn4c(C(F)(F)F)nnc4c3C)ccc1C)S2(=O)=O (single isomer, unassigned) [Example 538, (*S)-3-(4-Methyl-3-((7′-methyl-1′,1′-dioxidospiro[cyclopropane-1,4′-pyrido[2,3-b][1,4,5]oxathiazepin]-2′(3′H)-yl)methyl)phenyl)-3-(8-methyl-3-(trifluoromethyl)-[1,2,4]triazolo[4,3-a]pyridin-7-yl)propanoic Acid]	58.9 nM	< 1 nM

— US10947252B2, “Inhibitors of KEAP1-Nrf2 protein-protein interaction” (Janssen Pharmaceutica NV, priority 2018, dated 2021)
